Source: patent publication US8486899B2, “Antioxidant” (Morinaga Milk Industry Co., Ltd., priority 2008, dated 2013)

Assays:
ApoE gene-deficient mice [1] = assay type: in vivo; settings: for Amount of lipid peroxide in blood (MDA concentration (μM)): ApoE gene-deficient mice on high-cholesterol diet, oral, once a day, 30 μg per day, serum 14 days after start of administration, TBARS assay kit; for Effect of inhibiting formation of a lipid peroxide in blood (in words, versus negative sample): ApoE gene-deficient mice, oral 30 μg per day, 14 days after start of administration
Text: The actions of inhibiting formation of a lipid peroxide of various test samples including the antioxidant of the present invention can be evaluated by using, as an index, the amount of a thiobarbituric acid (TBA) reactive substance (TBARS), for example. Specifically, it may be defined that the larger the amount of the TBARS, the larger the amount of a lipid peroxide formed.
Examples of the TBARS include malondialdehyde (MDA) which reacts with TBA under high-temperature and acidic conditions and is a natural by-product of a lipid peroxidation. An MDA-TBA adduct can be detected by measurement of an absorbance at 530 to 540 nm to perform colorimetric measurement of MDA.
Also, the action of inhibiting formation of a lipid peroxide of a test sample can be evaluated using ApoE gene-deficient mice, which are often used as model animals which develop arteriosclerosis by hypercholesterolemia (hyper-LDL-cholesterolemia) (for example, see Reference Document 1: “Saibokogaku (Cell Engineering),” Extra Issue, “Medical Experiment Manual” series, Strategy for Study of Arteriosclerosis+Hyperlipidemia, Shujunsha Co., 1st edition, 1st impression, published on Apr. 1, 1996, pp. 441-443).
Further, in the model mice, the lipid peroxide level is higher than that of normal mice, and formation of atherosclerotic lesions (plagues) in the artery is observed with time. Therefore, the action of inhibiting formation of a lipid peroxide of a test sample can be evaluated by administering the test sample to the model mice and measuring a lipid peroxide in blood of the model mice.
Model animals which develop arteriosclerosis, ApoE gene-deficient mice, were used to examine the action of inhibiting formation of a lipid peroxide of 3-O-β-D-glucopyranosyl-4-methylergost-7-en-3-ol.
3-O-β-D-glucopyranosyl-4-methylergost-7-en-3-ol manufactured in Production Example 1 above was used as a test sample, and Mevalotin (DAIICHI SANKYO COMPANY, LIMITED), which is an HMG-CoA reductase inhibitor, was used as a control sample.
Those samples were separately dissolved in physiological saline so that the concentration of each compound was 30 μg/ml and were used for a test. Note that physiological saline was used as a negative sample.
(§1) Six-week-old male ApoE gene-deficient mice (purchased from Japan SLC, Inc.) were preliminarily fed with a high-cholesterol diet (manufactured by Research Diets, Inc.) for 2 weeks and divided into groups each of 15 mice.
To mice of each group, the solution including the test sample, control sample, or negative sample was separately administered orally once a day for 3 consecutive days using medical probes in an amount of 1 ml per 25 g of mouse body weight. […] Then, the amount of TBARS was measured using OxiSelect TBARS Assay Kit (manufactured by […]). […]

ApoE gene-deficient mice [2] = test: Number of atherosclerotic lesions (plaques) in thoracic aorta of ApoE gene-deficient mice; assay type: in vivo; settings: oral once a day for 39 consecutive days; for Number of plaques formed in thoracic aorta: ApoE gene-deficient mice on high-cholesterol diet, 1 ml of 30 μg/ml per 25 g body weight, Oil red staining 40 days after start; for Effect on plaque formation (in words, versus negative sample): ApoE gene-deficient mice
Protocol: In addition, it is generally known that a primary lesion of arteriosclerosis is caused by oxidized LDL. Therefore, it is also possible to evaluate the action of reducing a risk of arteriosclerosis through inhibiting formation of a lipid peroxide of the test sample by counting the number of atherosclerotic lesions (plaques) in the artery of each model mouse treated with the test sample.
In Example 2, 3-O-β-D-glucopyranosyl-4-methylergost-7-en-3-ol was evaluated on the effect of reducing a risk of arteriosclerosis through the effect of inhibiting a lipid peroxide by counting the number of atherosclerotic lesions (plaques) in the artery using known arteriosclerosis model animals, ApoE gene-deficient mice.
A test sample, a control sample, and a negative sample were prepared in the same way as in Example 1 above and were each used for a test.
as §1
Each of the sample solutions including the test sample, control sample, and negative sample was separately administered orally once a day for 39 consecutive days using medical probes in an amount of 1 ml per 25 g of mouse body weight. Forty days after the start of administration, the thoracic aorta part was fixed with formalin and stained with Oil red, and the number of plaques was counted.
The test results of this example are shown in Tale 2.

SMILES | Amount of lipid peroxide in blood (MDA concentration (μM)) (ApoE gene-deficient mice [1]) | Effect of inhibiting formation of a lipid peroxide in blood (in words, versus negative sample) (ApoE gene-deficient mice [1]) | Number of plaques formed in thoracic aorta (ApoE gene-deficient mice [2]) | Effect on plaque formation (in words, versus negative sample) (ApoE gene-deficient mice [2]) | Number of plaques formed in thoracic aorta (ApoE gene-deficient mice [2]; listed as test sample)
CC[C@H](C)C(=O)O[C@H]1C[C@H](O)C=C2C=C[C@H](C)[C@H](CC[C@@H](O)C[C@@H](O)CC(=O)[O-])[C@H]21.[Na+] [Control sample, reference compound] | 0.93 ± 0.05 µM | a significant decrease in amount of a lipid peroxide in blood was not observed | 10.6 ± 3.2 | no significant difference although plaque formation was found to decrease | 
CC1C(O[C@@H]2O[C@H](CO)[C@@H](O)[C@H](O)[C@H]2O)CC[C@@]2(C)C1CC=C1[C@@H]3CC[C@H]([C@H](C)CC[C@H](C)C(C)C)[C@@]3(C)CC[C@@H]12 (stereo partly drawn) [Test sample, 3-O-β-D-glucopyranosyl-4-methylergost-7-en-3-ol] | 0.51 ± 0.22 µM | the effect of inhibiting formation of a lipid peroxide in blood was clearly confirmed | 5.8 ± 1.6 | had an effect of inhibiting plaque formation on the arterial endothelium | 5.8
